In ChEMBL document CHEMBL4507289, “Data for DCP probe GSM1” (2021):

Experiments:
[1] = biological target: Serine/threonine-protein kinase haspin (Homo sapiens) (UniProt Q8TF76); conditions: Compound concentration 1000.0 nM
[2] = tested on: Phosphatidylinositol 4,5-bisphosphate 3-kinase catalytic subunit alpha isoform (Homo sapiens), P42336 [M1043I]; conditions: Compound concentration 1000.0 nM
[3] = biological target: NUAK family SNF1-like kinase 1 (Homo sapiens) (UniProt O60285); conditions: Compound concentration 1000.0 nM
[4] = biological target: Serine/threonine-protein kinase 38 (Homo sapiens) (UniProt Q15208); conditions: Compound concentration 1000.0 nM
[5] = biological target: Insulin-like growth factor 1 receptor (Homo sapiens) (UniProt P08069); conditions: Compound concentration 1000.0 nM
[6] = tested on: Receptor-type tyrosine-protein kinase FLT3 (Homo sapiens), P36888 [R834Q]; conditions: Compound concentration 1000.0 nM
[7] = biological target: High affinity nerve growth factor receptor (Homo sapiens) (UniProt P04629); conditions: Compound concentration 1000.0 nM
[8] = biological target: RAC-alpha serine/threonine-protein kinase (Homo sapiens) (UniProt P31749); conditions: Compound concentration 1000.0 nM
[9] = biological target: Interleukin-1 receptor-associated kinase 1 (Homo sapiens) (UniProt P51617); conditions: Compound concentration 1000.0 nM
[10] = biological target: D(2) dopamine receptor (Homo sapiens) (UniProt P14416); conditions: Compound concentration 10.0 uM
[11] = biological target: Activin receptor type-1 (Homo sapiens) (UniProt Q04771); conditions: Compound concentration 1000.0 nM
[12] = biological target: Cyclin-dependent kinase 2 (Homo sapiens) (UniProt P24941); conditions: Compound concentration 1000.0 nM
[13] = biological target: Serine/threonine-protein kinase PRP4 homolog (Homo sapiens) (UniProt Q13523); conditions: Compound concentration 1000.0 nM
[14] = biological target: Casein kinase I isoform delta (Homo sapiens) (UniProt P48730); conditions: Compound concentration 1000.0 nM
[15] = biological target: Death-associated protein kinase 1 (Homo sapiens) (UniProt P53355); conditions: Compound concentration 1000.0 nM
[16] = biological target: Mu-type opioid receptor (Homo sapiens) (UniProt P35372); conditions: Compound concentration 10.0 uM
[17] = biological target: Tyrosine-protein kinase TXK (Homo sapiens) (UniProt P42681); conditions: Compound concentration 1000.0 nM
[18] = biological target: Beta-1 adrenergic receptor (Homo sapiens) (UniProt P08588); conditions: Compound concentration 10.0 uM
[19] = tested on: Receptor-type tyrosine-protein kinase FLT3 (Homo sapiens), P36888 [UNDEFINED MUTATION]; conditions: Compound concentration 1000.0 nM
[20] = biological target: Activin receptor type-1B (Homo sapiens) (UniProt P36896); conditions: Compound concentration 1000.0 nM
[21] = tested on: Mast/stem cell growth factor receptor Kit (Homo sapiens), P10721 [A829P]; conditions: Compound concentration 1000.0 nM
[22] = biological target: Cyclin-dependent kinase 14 (Homo sapiens) (UniProt O94921); conditions: Compound concentration 1000.0 nM
[23] = biological target: TRAF2 and NCK-interacting protein kinase (Homo sapiens) (UniProt Q9UKE5); conditions: Compound concentration 1000.0 nM
[24] = biological target: Dual specificity protein kinase CLK3 (Homo sapiens) (UniProt P49761); conditions: Compound concentration 1000.0 nM
Histamine H2 receptor = Histamine H2 receptor (Homo sapiens, UniProt P25021); conditions: Compound concentration 10.0 uM
[25] = biological target: Atypical kinase COQ8B, mitochondrial (Homo sapiens) (UniProt Q96D53); conditions: Compound concentration 1000.0 nM
[26] = biological target: Cyclin-dependent kinase 16 (Homo sapiens) (UniProt Q00536); conditions: Compound concentration 1000.0 nM
[27] = biological target: Myosin-IIIa (Homo sapiens) (UniProt Q8NEV4); conditions: Compound concentration 1000.0 nM
[28] = tested on: Tyrosine-protein kinase ABL1 (Homo sapiens), P00519 [F317I]; conditions: Compound concentration 1000.0 nM
[29] = biological target: Muscarinic acetylcholine receptor M4 (Homo sapiens) (UniProt P08173); conditions: Compound concentration 10.0 uM
[30] = biological target: Serine/threonine-protein kinase Nek9 (Homo sapiens) (UniProt Q8TD19); conditions: Compound concentration 1000.0 nM
[31] = biological target: Receptor tyrosine-protein kinase erbB-2 (Homo sapiens) (UniProt P04626); conditions: Compound concentration 1000.0 nM
[32] = biological target: Casein kinase I isoform alpha (Homo sapiens) (UniProt P48729); conditions: Compound concentration 1000.0 nM
[33] = biological target: Activin receptor type-2B (Homo sapiens) (UniProt Q13705); conditions: Compound concentration 1000.0 nM
[34] = biological target: Alpha-2B adrenergic receptor (Homo sapiens) (UniProt P18089); conditions: Compound concentration 10.0 uM
[35] = tested on: Proto-oncogene tyrosine-protein kinase receptor Ret (Homo sapiens), P07949 [V804L]; conditions: Compound concentration 1000.0 nM
[36] = biological target: Citron Rho-interacting kinase (Homo sapiens) (UniProt O14578); conditions: Compound concentration 1000.0 nM
[37] = biological target: Tyrosine-protein kinase Fer (Homo sapiens) (UniProt P16591); conditions: Compound concentration 1000.0 nM
[38] = biological target: Mitogen-activated protein kinase kinase kinase 3 (Homo sapiens) (UniProt Q99759); conditions: Compound concentration 1000.0 nM
[39] = biological target: Maternal embryonic leucine zipper kinase (Homo sapiens) (UniProt Q14680); conditions: Compound concentration 1000.0 nM
[40] = biological target: Myosin light chain kinase family member 4 (Homo sapiens) (UniProt Q86YV6); conditions: Compound concentration 1000.0 nM
[41] = biological target: MAP/microtubule affinity-regulating kinase 3 (Homo sapiens) (UniProt P27448); conditions: Compound concentration 1000.0 nM
[42] = tested on: Proto-oncogene tyrosine-protein kinase receptor Ret (Homo sapiens), P07949 [V804M]; conditions: Compound concentration 1000.0 nM
[43] = biological target: Serine/threonine-protein kinase SIK1 (Homo sapiens) (UniProt P57059); conditions: Compound concentration 1000.0 nM
[44] = biological target: Phosphatidylinositol 4,5-bisphosphate 3-kinase catalytic subunit beta isoform (Homo sapiens) (UniProt P42338); conditions: Compound concentration 1000.0 nM

Sequence of Casein kinase I isoform alpha (Homo sapiens) (P48729 2-337 limits assumed): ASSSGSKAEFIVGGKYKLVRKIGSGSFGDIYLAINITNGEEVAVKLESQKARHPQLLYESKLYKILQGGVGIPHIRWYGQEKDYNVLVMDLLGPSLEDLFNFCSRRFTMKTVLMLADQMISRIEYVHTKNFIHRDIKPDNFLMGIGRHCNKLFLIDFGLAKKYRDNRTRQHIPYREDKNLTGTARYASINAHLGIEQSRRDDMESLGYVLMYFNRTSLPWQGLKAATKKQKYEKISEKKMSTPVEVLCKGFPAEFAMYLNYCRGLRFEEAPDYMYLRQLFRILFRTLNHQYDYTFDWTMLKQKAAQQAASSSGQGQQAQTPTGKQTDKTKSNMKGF
Sequence of Serine/threonine-protein kinase haspin (Homo sapiens) (Q8TF76 whole entry, canonical isoform): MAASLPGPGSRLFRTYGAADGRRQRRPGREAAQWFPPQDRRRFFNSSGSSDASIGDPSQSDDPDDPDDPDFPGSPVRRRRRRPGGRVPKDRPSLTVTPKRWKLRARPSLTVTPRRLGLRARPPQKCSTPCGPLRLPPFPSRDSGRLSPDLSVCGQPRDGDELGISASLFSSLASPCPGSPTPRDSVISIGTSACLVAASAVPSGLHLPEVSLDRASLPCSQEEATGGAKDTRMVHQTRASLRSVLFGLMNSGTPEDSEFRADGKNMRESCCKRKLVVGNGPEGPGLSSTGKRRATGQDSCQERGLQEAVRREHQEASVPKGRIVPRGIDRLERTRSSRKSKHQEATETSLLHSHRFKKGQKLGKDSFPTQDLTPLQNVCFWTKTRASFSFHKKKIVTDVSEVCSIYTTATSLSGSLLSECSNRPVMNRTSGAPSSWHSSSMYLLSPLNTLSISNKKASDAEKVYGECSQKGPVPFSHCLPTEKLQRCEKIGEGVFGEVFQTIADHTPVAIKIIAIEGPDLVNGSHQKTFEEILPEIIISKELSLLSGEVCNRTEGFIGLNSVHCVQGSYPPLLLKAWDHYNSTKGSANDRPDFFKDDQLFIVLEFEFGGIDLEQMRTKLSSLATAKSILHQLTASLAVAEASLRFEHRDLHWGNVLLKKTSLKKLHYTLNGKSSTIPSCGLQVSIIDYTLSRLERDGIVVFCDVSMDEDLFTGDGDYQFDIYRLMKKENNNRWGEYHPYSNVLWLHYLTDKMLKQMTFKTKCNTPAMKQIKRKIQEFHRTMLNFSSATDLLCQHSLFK
Sequence of Cyclin-dependent kinase 16 (Homo sapiens) (Q00536 whole entry): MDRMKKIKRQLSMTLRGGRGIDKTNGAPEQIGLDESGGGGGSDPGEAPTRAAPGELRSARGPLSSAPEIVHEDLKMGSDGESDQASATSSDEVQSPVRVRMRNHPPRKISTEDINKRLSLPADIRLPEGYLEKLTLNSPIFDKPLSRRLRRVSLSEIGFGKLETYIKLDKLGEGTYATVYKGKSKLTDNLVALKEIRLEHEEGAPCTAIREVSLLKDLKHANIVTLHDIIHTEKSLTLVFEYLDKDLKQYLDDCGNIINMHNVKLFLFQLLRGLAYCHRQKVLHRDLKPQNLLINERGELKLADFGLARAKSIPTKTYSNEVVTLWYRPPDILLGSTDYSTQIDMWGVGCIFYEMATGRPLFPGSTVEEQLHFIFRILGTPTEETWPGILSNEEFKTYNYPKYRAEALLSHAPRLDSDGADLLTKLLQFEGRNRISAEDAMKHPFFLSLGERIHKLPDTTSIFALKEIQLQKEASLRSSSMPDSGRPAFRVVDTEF
Sequence of Tyrosine-protein kinase ABL1 (Homo sapiens), P00519 [F317I] (P00519 whole entry F317I): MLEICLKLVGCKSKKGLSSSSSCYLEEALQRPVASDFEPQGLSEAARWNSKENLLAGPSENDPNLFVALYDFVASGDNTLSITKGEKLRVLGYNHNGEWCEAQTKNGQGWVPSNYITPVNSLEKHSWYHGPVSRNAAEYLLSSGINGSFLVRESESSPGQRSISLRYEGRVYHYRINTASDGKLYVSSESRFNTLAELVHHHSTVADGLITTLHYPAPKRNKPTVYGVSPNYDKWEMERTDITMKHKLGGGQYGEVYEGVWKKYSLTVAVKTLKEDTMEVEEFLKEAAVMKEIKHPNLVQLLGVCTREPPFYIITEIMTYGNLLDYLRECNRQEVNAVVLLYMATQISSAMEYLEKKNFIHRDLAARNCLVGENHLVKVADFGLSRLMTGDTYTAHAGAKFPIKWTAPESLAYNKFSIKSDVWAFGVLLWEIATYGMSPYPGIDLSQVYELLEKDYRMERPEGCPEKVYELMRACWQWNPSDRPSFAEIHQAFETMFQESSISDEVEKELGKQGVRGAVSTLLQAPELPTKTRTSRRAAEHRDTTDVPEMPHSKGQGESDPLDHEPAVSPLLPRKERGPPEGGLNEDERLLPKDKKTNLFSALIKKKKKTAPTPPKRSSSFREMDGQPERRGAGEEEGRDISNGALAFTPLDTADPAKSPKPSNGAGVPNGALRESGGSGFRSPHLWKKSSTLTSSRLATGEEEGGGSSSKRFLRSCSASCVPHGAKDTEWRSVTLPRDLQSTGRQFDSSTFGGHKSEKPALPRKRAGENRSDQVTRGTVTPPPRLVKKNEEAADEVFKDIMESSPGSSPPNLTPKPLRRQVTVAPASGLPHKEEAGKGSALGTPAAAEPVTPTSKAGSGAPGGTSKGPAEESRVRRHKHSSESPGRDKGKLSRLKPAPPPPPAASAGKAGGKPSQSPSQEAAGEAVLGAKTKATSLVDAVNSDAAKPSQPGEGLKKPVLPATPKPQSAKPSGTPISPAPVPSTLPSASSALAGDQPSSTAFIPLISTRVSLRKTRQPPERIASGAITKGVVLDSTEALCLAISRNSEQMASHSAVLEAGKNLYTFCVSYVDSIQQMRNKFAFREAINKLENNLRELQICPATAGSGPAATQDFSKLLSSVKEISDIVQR
Sequence of Cyclin-dependent kinase 14 (Homo sapiens) (O94921 whole entry): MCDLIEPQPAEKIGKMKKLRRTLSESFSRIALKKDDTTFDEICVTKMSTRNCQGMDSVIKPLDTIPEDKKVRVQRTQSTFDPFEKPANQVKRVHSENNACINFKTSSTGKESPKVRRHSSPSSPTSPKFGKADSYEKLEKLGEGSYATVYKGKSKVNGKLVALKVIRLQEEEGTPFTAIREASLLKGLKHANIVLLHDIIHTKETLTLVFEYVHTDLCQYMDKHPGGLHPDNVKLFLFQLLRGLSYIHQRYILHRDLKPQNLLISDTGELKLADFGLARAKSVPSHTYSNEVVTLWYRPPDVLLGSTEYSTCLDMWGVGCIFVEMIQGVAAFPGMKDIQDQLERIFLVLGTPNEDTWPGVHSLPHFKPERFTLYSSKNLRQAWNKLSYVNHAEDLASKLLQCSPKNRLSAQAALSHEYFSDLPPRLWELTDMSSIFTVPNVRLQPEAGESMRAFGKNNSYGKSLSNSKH
Sequence of Serine/threonine-protein kinase 38 (Homo sapiens) (Q15208 2-465 limits assumed): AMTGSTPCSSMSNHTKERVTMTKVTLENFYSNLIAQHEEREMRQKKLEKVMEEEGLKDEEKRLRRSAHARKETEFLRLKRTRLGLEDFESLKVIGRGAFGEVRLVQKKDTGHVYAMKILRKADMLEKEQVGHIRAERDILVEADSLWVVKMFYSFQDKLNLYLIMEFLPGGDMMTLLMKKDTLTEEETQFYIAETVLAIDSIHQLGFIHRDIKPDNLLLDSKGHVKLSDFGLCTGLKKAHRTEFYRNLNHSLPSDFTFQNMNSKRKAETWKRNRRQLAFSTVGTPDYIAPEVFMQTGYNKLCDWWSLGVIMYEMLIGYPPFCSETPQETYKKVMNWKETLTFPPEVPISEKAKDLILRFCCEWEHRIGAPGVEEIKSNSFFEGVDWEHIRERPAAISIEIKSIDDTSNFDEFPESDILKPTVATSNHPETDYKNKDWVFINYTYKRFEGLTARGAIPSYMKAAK
Sequence of Maternal embryonic leucine zipper kinase (Homo sapiens) (Q14680 whole entry, looked up): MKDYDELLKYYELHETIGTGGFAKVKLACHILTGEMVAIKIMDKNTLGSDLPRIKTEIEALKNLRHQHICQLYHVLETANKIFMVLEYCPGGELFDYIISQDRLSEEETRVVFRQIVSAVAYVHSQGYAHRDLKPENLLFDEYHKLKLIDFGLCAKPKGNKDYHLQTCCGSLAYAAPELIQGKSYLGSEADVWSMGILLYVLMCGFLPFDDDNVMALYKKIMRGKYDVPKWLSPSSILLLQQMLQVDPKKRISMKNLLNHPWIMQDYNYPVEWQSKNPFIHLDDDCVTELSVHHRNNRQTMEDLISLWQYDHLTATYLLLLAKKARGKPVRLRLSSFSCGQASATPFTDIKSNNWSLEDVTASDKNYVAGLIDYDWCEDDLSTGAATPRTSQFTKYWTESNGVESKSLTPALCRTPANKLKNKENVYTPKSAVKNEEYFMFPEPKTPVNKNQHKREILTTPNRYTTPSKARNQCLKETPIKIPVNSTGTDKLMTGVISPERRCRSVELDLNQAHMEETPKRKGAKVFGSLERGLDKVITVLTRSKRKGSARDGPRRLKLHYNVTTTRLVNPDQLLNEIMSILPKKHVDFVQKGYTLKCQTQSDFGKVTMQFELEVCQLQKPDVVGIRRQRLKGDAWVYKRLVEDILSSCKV
Sequence of Atypical kinase COQ8B, mitochondrial (Homo sapiens) (Q96D53 whole entry): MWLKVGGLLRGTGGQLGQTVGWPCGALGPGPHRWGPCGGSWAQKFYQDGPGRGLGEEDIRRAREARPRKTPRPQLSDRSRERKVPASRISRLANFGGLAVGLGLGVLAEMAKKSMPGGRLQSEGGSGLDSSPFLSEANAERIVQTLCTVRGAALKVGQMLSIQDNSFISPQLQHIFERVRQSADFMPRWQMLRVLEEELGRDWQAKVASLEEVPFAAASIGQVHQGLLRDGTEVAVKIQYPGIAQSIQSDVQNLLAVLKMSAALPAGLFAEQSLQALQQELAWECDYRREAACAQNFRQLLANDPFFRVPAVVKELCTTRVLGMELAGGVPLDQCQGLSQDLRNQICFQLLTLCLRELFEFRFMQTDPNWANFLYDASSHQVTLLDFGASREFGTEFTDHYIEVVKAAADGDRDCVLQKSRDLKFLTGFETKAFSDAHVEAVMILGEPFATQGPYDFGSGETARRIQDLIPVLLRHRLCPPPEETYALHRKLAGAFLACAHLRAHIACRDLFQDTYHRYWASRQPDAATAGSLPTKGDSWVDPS

COc1cc(-c2cn([C@H]3CCc4ccccc4N(CC(F)(F)F)C3=O)nn2)ccc1-n1ccc(C)n1
residual activity [1]: 83%
residual activity [2]: 100%
residual activity [3]: 92%
residual activity [4]: 100%
residual activity [5]: 100%
residual activity [6]: 100%
residual activity [7]: 63%
residual activity [8]: 97%
residual activity [9]: 100%
inhibition [10]: 7.85%
residual activity [11]: 100%
residual activity [12]: 100%
residual activity [13]: 93%
residual activity [14]: 100%
residual activity [15]: 79%
inhibition [16]: 5.55%
residual activity [17]: 84%
inhibition [18]: 3.7%
residual activity [19]: 80%
residual activity [20]: 83%
residual activity [21]: 68%
residual activity [22]: 100%
residual activity [23]: 81%
residual activity [24]: 95%
inhibition (Histamine H2 receptor): 4.13%
residual activity [25]: 100%
residual activity [26]: 81%
residual activity [27]: 100%
residual activity [28]: 67%
inhibition [29]: 6.94%
residual activity [30]: 100%
residual activity [31]: 100%
residual activity [32]: 98%
residual activity [33]: 100%
inhibition [34]: 7.14%
residual activity [35]: 100%
residual activity [36]: 100%
residual activity [37]: 100%
residual activity [38]: 88%
residual activity [39]: 96%
residual activity [40]: 100%
residual activity [41]: 100%
residual activity [42]: 100%
residual activity [43]: 100%
residual activity [44]: 100%

COc1cc(-c2cn([C@H]3CCc4c(F)cccc4N(CC(F)(F)F)C3=O)nn2)ccc1-n1cnc(C)c1
residual activity [1]: 87%
residual activity [2]: 100%
residual activity [3]: 100%
residual activity [4]: 89%
residual activity [5]: 100%
residual activity [6]: 100%
residual activity [7]: 81%
residual activity [8]: 96%
residual activity [9]: 100%
inhibition [10]: 31.2%
residual activity [11]: 100%
residual activity [12]: 100%
residual activity [13]: 100%
residual activity [14]: 100%
residual activity [15]: 99%
inhibition [16]: 30.2%
residual activity [17]: 100%
inhibition [18]: 2.45%
residual activity [19]: 82%
residual activity [20]: 100%
residual activity [21]: 92%
residual activity [22]: 100%
residual activity [23]: 94%
residual activity [24]: 83%
inhibition (Histamine H2 receptor): 51.8%
residual activity [25]: 77%
residual activity [26]: 82%
residual activity [27]: 100%
residual activity [28]: 100%
inhibition [29]: 26.2%
residual activity [30]: 100%
residual activity [31]: 100%
residual activity [32]: 100%
residual activity [33]: 100%
inhibition [34]: 31.1%
residual activity [35]: 100%
residual activity [36]: 100%
residual activity [37]: 100%
residual activity [38]: 100%
residual activity [39]: 100%
residual activity [40]: 100%
residual activity [41]: 100%
residual activity [42]: 88%
residual activity [43]: 100%
residual activity [44]: 100%
